Test results: patent US10975049B2, “Nicotinyl alcohol ether derivative, preparation method therefor, and pharmaceutical composition and uses thereof” (Institute of Materia Medica, Chinese Academy of Medical …, priority 2016, dated 2021)
Where a name gives a salt, the structure may show the parent alone.

Tests used:
mouse colon cancer MC38 = test: Subcutaneous xenograft model of mouse colon cancer MC38; format: in vivo, C57BL/6 or Bablc mice; settings: 60 mg/kg
Method: (§1) The method in subcutaneous xenograft tumor was as follows. The cultured specific tumor cells were digested and collected by centrifugation, and washed with sterile physiological saline for two times and then counted. The cell concentration was adjusted to 5×10^6/ml by physiological saline, and 0.2 ml of cell suspension was inoculated to the right armpit of C57BL/6 or Bablc mice. After inoculation, the animals were randomly divided into two groups in next day. Each group had 6-7 mice. After weighing, the animals were dosed once each day to monitor tumor size. When the tumor size reached to a certain size, the mice was weighed and blood was collected from mice orbit and then the mice were killed by removing the neck. The tumor tissue, thymus tissue and spleen tissue were collected and weighed respectively. Finally, the tumor growth inhibition rate was calculated, and the tumor growth inhibition rate was used to evaluate the level of anti-tumor effect.

[1] = system: high metastatic melanoma B16F10; test: Subcutaneous xenograft model of high metastatic melanoma B16F10; format: in vivo, C57BL/6 or Bablc mice; settings: for T/C % (relative tumor proliferation rate) / TGI % (tumor growth inhibition rate): tumor weight
Method: as §1
(§2) In the study of the mechanism of the above models, the method of flow cytometry was adopted in measuring the total cell proportion of T cells of various types. The specific steps were as follows. The samples were treated at first. For blood tissue, the orbital blood was taken. The red cell lysate was used to remove the red blood cells, and then the PBS buffer was used for wash. After being washed, the cells were collected. For the tumor and spleen, the tissues were grinded with a homogenizer, and then diluted with PBS buffer, then filtered by 300 meshes of screen. After the number of cells was counted for each sample, 1×10^6 cells were added into EP tube and stained for flow antibody. After incubation for 1 h on ice, each sample was washed 2 times with PBS buffer. The cell population was analyzed by VERSE flow instrument of BD Company. The total number of cells in tumor tissue was 1×10^5 and the total number of cells in blood and spleen tissues was 1×10^4. The ratio of T cells to total number of cells was analyzed after flow cytometry.

[2] = system: high metastatic melanoma B16F10; test: Lung metastasis model of high metastatic melanoma B16F10; format: in vivo, C57BL/6 mice; settings: for Tumor number X ± SD: lung; for T/C % (relative tumor proliferation rate) / TGI % (tumor growth inhibition rate): tumor number
Method: The method in B16F10 lung metastasis model was as follows. The cultured B16F10 tumor cells were digested and centrifuged and washed for two times with sterile physiological saline and then counted. And the cell concentration was adjusted to 2.5×10^6/ml by physiological saline. 0.2 ml of cells were injected into the C57BL/6 mice through the tail vein, and the tumor cells will gather in the lung of the mice. After inoculation, the animals were randomly divided into two groups in next day. Each group had 6-7 mice. After weighing, the animals were dosed once each day. After 3 weeks, the mice were weighed and killed, the lung tissue was collected and weighed, and the number of lung tumors was counted after being fixed by the Bouin's Fluid. Finally, the tumor growth inhibition rate was calculated, and the tumor growth inhibition rate was used to evaluate the level of anti-tumor effect.
as §2

mouse breast cancer EMT6 = test: Subcutaneous xenograft model of mouse breast cancer EMT6; format: in vivo, C57BL/6 or Bablc mice
Method: as §1

[3] = molecular target: interaction between PD-1 and PD-L1 (Homo sapiens (Human), UniProt Q9NZQ7); test: Cisbio PD-1/PD-L1 binding assay kit (HTRF); settings: molecular level, read-out: IC50 (M), inhibitory activity on the interaction between PD-1 and PD-L1
Chain of interaction between PD-1 and PD-L1 (Q9NZQ7 19-238): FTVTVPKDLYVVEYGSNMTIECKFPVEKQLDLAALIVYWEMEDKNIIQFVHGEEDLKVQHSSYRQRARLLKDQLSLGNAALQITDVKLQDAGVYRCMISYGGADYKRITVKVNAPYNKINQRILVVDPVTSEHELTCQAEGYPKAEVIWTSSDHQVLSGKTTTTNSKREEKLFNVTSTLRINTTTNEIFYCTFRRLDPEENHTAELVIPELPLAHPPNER
From the text: 1. In vitro activity evaluation: Cisbio PD-1/PD-L1 binding assay kit was applied for the detection method of in vitro enzymology level.
Screening Principles and Methods of PD-1/PD-L1 Small Molecule Inhibitors
1) Principle: PD-1 protein is with HIS tag, and PD-1 ligand PD-L1 is with hFc tag. Eu labeled anti-hFc antibody and XL665 labeled anti-HIS antibody are combined with the above two label proteins respectively. After laser excitation, energy can be transferred from donor Eu to receptor XL665, allowing XL665 to glow.
2) Experimental method: The specific method can be referred to Cisbio's PD-1/PD-L1 Kit (item 64CUS000C-2). Reagents should be dispensed in the following order. For 384-well white ELISA plate, 2 μl of diluent or target compound diluted with diluent was added to each well, and then 4 μl of PD-1 protein and 4 μl of PD-L1 protein were added per well, incubated for 15 min at room temperature; and 10 μl of a mixture of anti-Tag1-Eu3^+ and anti-Tag2-XL665 was added per well and incubated for 1 h to 4 h at room temperature and the fluorescence signals at 665 nm and 620 nm were measured with an Envison instrument. HTRF rate=(665 nm/620 nm)*10^4. 8-10 concentrations were detected for each compound and IC50 was calculated by Graphpad software.

[4] = spleen, CTX group, dose not given

For `O=P1(N(CCCl)CCCl)NCCCO1` (stereo not drawn) [Cyclophosphamide (CTX), Cyclophosphamide, reference compound], the “T/C % (relative tumor proliferation rate)” value (mouse colon cancer MC38) was 5.4%, the “TGI % (tumor growth inhibition rate)” value (mouse colon cancer MC38) was 94.6% and the “Tumor weight(g) Mean ± SD” value (mouse colon cancer MC38) was 0.17 ± 0.05 g. For the same molecule, the “Body weight (g) Mean ± SD Begin” value (mouse colon cancer MC38; begin) was 17.9 ± 0.6 g, the “Body weight (g) Mean ± SD End” value (mouse colon cancer MC38; end) was 19.1 ± 0.8 g and the “Tumorweight(g) X ± SD” value ([1]; 80 mg/kg) was 1.55 ± 0.59 g. For the same molecule, the “Body weight (g) Mean ± SD Begin” value ([1]; 80 mg/kg) was 20.3 ± 0.8 g, the “Body weight (g) Mean ± SD End” value ([1]; 80 mg/kg) was 23.3 ± 1.4 g and the “T/C % (relative tumor proliferation rate)” value ([1]; 80 mg/kg) was 60.00%. The “TGI % (tumor growth inhibition rate)” value ([1]; 80 mg/kg) was 40.00%, the “CD3+ (%) T lymphocytes in spleen” value [1, 4] was 78.6 ± 2.5% and the “CD4+ (%) T lymphocytes in spleen” value [1, 4] was 24.6 ± 2.6%. For the same molecule, the “CD8+ (%) T lymphocytes in spleen” value [1, 4] was 15.2 ± 3.1%, the “CD3+ (%) tumor-infiltrating T lymphocytes” value ([1]; CTX group, dose not given) was 3.6 ± 1.5% and the “CD4+ (%) tumor-infiltrating T lymphocytes” value ([1]; CTX group, dose not given) was 1.7 ± 0.4%. For the same molecule, the “CD8+ (%) tumor-infiltrating T lymphocytes” value ([1]; CTX group, dose not given) was 1.4 ± 0.3%, the “Body weight (g) Mean ± SD Begin” value ([2]; 80 mg/kg) was 20.1 ± 0.8 g and the “Body weight (g) Mean ± SD End” value ([2]; 80 mg/kg) was 21.4 ± 0.5 g. The “Tumor number X ± SD” value ([2]; 80 mg/kg) was 18 ± 14, the “T/C % (relative tumor proliferation rate)” value ([2]; 80 mg/kg) was 85.7% and the “TGI % (tumor growth inhibition rate)” value ([2]; 80 mg/kg) was 14.3%. For the same molecule, the “CD3+ percentage of T lymphocyte in mouse blood” value (“CD3+ percentage of T lymphocyte” below) ([2]; CTX group, dose not given) was 22.4 ± 5.5%, the “CD4+ percentage of T lymphocyte in mouse blood” value (“CD4+ percentage of T lymphocyte” for short) ([2]; CTX group, dose not given) was 13.0 ± 2.4% and the “CD8+ percentage of T lymphocyte in mouse blood” value (from here on “CD8+ percentage of T lymphocyte”) ([2]; CTX group, dose not given) was 7.5 ± 2.4%. For the same molecule, the “T/C % (relative tumor proliferation rate)” value (mouse breast cancer EMT6; 60 mg/kg) was 14.1%, the “TGI % (tumor growth inhibition rate)” value (mouse breast cancer EMT6; 60 mg/kg) was 85.9% and the “Tumorweight(g) X ± SD” value (mouse breast cancer EMT6; 60 mg/kg) was 0.25 ± 0.17 g. The “Body weight (g) Mean ± SD Begin” value (mouse breast cancer EMT6; 60 mg/kg, begin) was 18.4 ± 0.3 g, the “Body weight (g) Mean ± SD End” value (mouse breast cancer EMT6; 60 mg/kg, end) was 19.4 ± 0.7 g and the “tumor growth inhibition rate” value (mouse breast cancer EMT6; Cyclophosphamide alone vs combination, dose not restated) was 85%.
`CCOC(=O)C(CO)NCc1cc(Cl)c(OCc2cccc(-c3ccccc3)c2Br)cc1OCc1cccnc1` (stereo not drawn) [Example 1, Ethyl N-(4-(2-bromo-3-phenylbenzyloxy)-5-chloro-2-(pyridin-3-yl-methyleneoxy)benzyl) serinate dihydrochloride] showed an IC50 [3] of 1.48e-07 M.
For `CCOC(=O)[C@H](CO)NCc1cc(Cl)c(OCc2cccc(-c3ccccc3)c2Br)cc1OCc1cccnc1.Cl.Cl` [Example 5, (S)-Ethyl N-(4-(2-bromo-3-phenylbenzyloxy)-5-chloro-2-(pyridin-3-yl-methyleneoxy)benzyl) serinate dihydrochloride], the “Tumorweight(g) X ± SD” value ([1]; 15 mg/kg) was 2.69 ± 1.99 g, the “Body weight (g) Mean ± SD Begin” value ([1]; 15 mg/kg) was 20.4 ± 1.0 g and the “Body weight (g) Mean ± SD End” value ([1]; 15 mg/kg) was 24.2 ± 2.2 g. For the same molecule, the “T/C % (relative tumor proliferation rate)” value ([1]; 15 mg/kg) was 104.26%, the “TGI % (tumor growth inhibition rate)” value ([1]; 15 mg/kg) was −4.26% and the “Tumorweight(g) X ± SD” value ([1]; 45 mg/kg) was 1.41 ± 0.60 g. For the same molecule, the “Body weight (g) Mean ± SD Begin” value ([1]; 45 mg/kg) was 20.3 ± 1.0 g, the “Body weight (g) Mean ± SD End” value ([1]; 45 mg/kg) was 22.6 ± 1.4 g and the “T/C % (relative tumor proliferation rate)” value ([1]; 45 mg/kg) was 54.73%. The “TGI % (tumor growth inhibition rate)” value ([1]; 45 mg/kg) was 45.27%, the “proportion of tumor-infiltrating lymphocytes” value ([1]; result in words) was “increase” and the “CD3+ (%) tumor-infiltrating T lymphocytes” value ([1]; 45 mg) was 10.1 ± 4.5%. For the same molecule, the “CD4+ (%) tumor-infiltrating T lymphocytes” value ([1]; 45 mg) was 9.0 ± 4.7%, the “CD8+ (%) tumor-infiltrating T lymphocytes” value ([1]; 45 mg) was 5.2 ± 2.8% and the “Body weight (g) Mean ± SD Begin” value ([2]; 15 mg/kg) was 20.6 ± 0.7 g. The “Body weight (g) Mean ± SD End” value ([2]; 15 mg/kg) was 20.2 ± 1.5 g, the “Tumor number X ± SD” value ([2]; 15 mg/kg) was 18 ± 18 and the “T/C % (relative tumor proliferation rate)” value ([2]; 15 mg/kg) was 85.7%. For the same molecule, the “TGI % (tumor growth inhibition rate)” value ([2]; 15 mg/kg) was 14.3%, the “Body weight (g) Mean ± SD Begin” value ([2]; 45 mg/kg) was 20.5 ± 0.6 g and the “Body weight (g) Mean ± SD End” value ([2]; 45 mg/kg) was 21.2 ± 0.7 g. For the same molecule, the “Tumor number X ± SD” value ([2]; 45 mg/kg) was 16 ± 7, the “T/C % (relative tumor proliferation rate)” value ([2]; 45 mg/kg) was 76.2% and the “TGI % (tumor growth inhibition rate)” value ([2]; 45 mg/kg) was 23.8%. The “CD3+ percentage of T lymphocyte” value ([2]; 15 mg) was 22.7 ± 4.8%, the “CD4+ percentage of T lymphocyte” value ([2]; 15 mg) was 14.4 ± 3.3% and the “CD8+ percentage of T lymphocyte” value ([2]; 15 mg) was 7.4 ± 1.9%. The “CD3+ percentage of T lymphocyte” value ([2]; 45 mg) was 25.8 ± 3.0%, the “CD4+ percentage of T lymphocyte” value ([2]; 45 mg) was 15.7 ± 2.5% and the “CD8+ percentage of T lymphocyte” value ([2]; 45 mg) was 7.6 ± 1.8%. For the same molecule, the “percentage of lymphocyte in mouse blood” value ([2]; result in words) was “increase”.
`CC(C)OC(=O)[C@H](CO)NCc1cc(Cl)c(OCc2cccc(-c3ccccc3)c2Br)cc1OCc1cccnc1` [Example 6, (S)-isopropyl N-(4-(2-bromo-3-phenylbenzyloxy)-5-chloro-2-(pyridin-3-yl-methyleneoxy)benzyl) serinate dihydrochloride] was tested, and the IC50 [3] was 8.23e-08 M.
With `O=C(O)[C@@H](CO)NCc1cc(Cl)c(OCc2cccc(-c3ccccc3)c2Br)cc1OCc1cccnc1` [Example 8, (R)—N-(4-(2-bromo-3-phenylbenzyloxy)-5-chloro-2-(pyridin-3-yl-methyleneoxy)benzyl) serine] the IC50 [3] was 4.29e-08 M.
In the case of `O=C(O)CNCc1cc(Cl)c(OCc2cccc(-c3ccccc3)c2Br)cc1OCc1cccnc1` [Example 12, N-(4-(2-bromo-3-phenylbenzyloxy)-5-chloro-2-(pyridin-3-yl-methyleneoxy)benzyl) glycine], the IC50 [3] is reported as 4.11e-08 M.
`CC(C)C(NCc1cc(Cl)c(OCc2cccc(-c3ccccc3)c2Br)cc1OCc1cccnc1)C(=O)O` (stereo not drawn) [Example 13, N-(4-(2-bromo-3-phenylbenzyloxy)-5-chloro-2-(pyridin-3-yl-methyleneoxy)benzyl) valine] showed an IC50 [3] of 2e-07 M.
`C/C(=C\C#N)NCc1cc(Cl)c(OCc2cccc(-c3ccccc3)c2Br)cc1OCc1cccnc1` [Example 14, (E)-3-(4-(2-bromo-3-phenylbenzyloxy)-5-chloro-2-(pyridin-3-yl-methyleneoxy)benzylamino) but-2-enenitrile] gave an IC50 [3] of 2.69e-05 M.
Work on `CS(=O)(=O)NCCNCc1cc(Cl)c(OCc2cccc(-c3ccccc3)c2Br)cc1OCc1cccnc1` [Example 16, N-(2-methanesulfonaminoethyl)-4-(2-bromo-3-phenylbenzyloxy)-5-chloro-2-(pyridin-3-yl-methyleneoxy)benzylamine] yielded an IC50 [3] of 1.99e-07 M.
In the case of `CC(=O)NCCNCc1cc(Cl)c(OCc2cccc(-c3ccccc3)c2Br)cc1OCc1cccnc1` [Example 17, N-(2-acetylaminoethyl)-4-(2-bromo-3-phenylbenzyloxy)-5-chloro-2-(pyridin-3-yl-methyleneoxy) benzylamine], the IC50 [3] is reported as 5.51e-07 M.
In the case of `CC(C)C[C@H](NCc1cc(Cl)c(OCc2cccc(-c3ccccc3)c2Br)cc1OCc1cccnc1)C(=O)O` [Example 20, N-(4-(2-bromo-3-phenylbenzyloxy)-5-chloro-2-(pyridin-3-yl-methyleneoxy)benzyl) leucine], the IC50 [3] is reported as 6.1e-08 M.
With `O=C(O)[C@H](Cc1ccc(O)cc1)NCc1cc(Cl)c(OCc2cccc(-c3ccccc3)c2Br)cc1OCc1cccnc1` [Example 21, N-(4-(2-bromo-3-phenylbenzyloxy)-5-chloro-2-(pyridin-3-yl-methyleneoxy)benzyl) tyrosine] the IC50 [3] was 4.06e-07 M.
Work on `CC[C@H](C)[C@H](NCc1cc(Cl)c(OCc2cccc(-c3ccccc3)c2Br)cc1OCc1cccnc1)C(=O)O` [Example 22, N-(4-(2-bromo-3-phenylbenzyloxy)-5-chloro-2-(pyridin-3-yl-methyleneoxy)benzyl) isoleucine] yielded an IC50 [3] of 4.99e-06 M.
